Test results reported in patent publication US10322187B2, “Reduced toxicity molecular conjugates of anti-fungal agents” (Lehigh University, priority 2015, dated 2019).
Values after ≈ are worked out from the molar mass of the structure shown. Like-named read-outs stand apart in the source and are kept apart here.

Assays:
C. albicans = assay: Antifungal activities, MIC/MFC; assay type: cell-based; details: C. albicans; for MIC: Table 2, 1st value in brackets, read-out: minimum inhibitory concentration (MIC)
Experimental: (§1) A similar sequence of reactions was carried out using lysine dicholamide in place of cholic acid afforded VJ-1147 of Table 2. To assess the antifungal properties of the diwalled VJ-1138 (Table 2) and 2a of Table 3, their in vitro activities were examined against four clinically relevant microbes, i.e., C. albicans, C. glabrata, C. neoformans, and C. gatti (Table 4).
(§2) Minimum inhibitory concentrations (MIC) and minimum fungicidal concentrations (MFC) are the lowest concentrations that are required for completely inhibiting growth, and killing at least 99% of the fungi, respectively.
(§3) The above molecules were tested for antifungal activity. Minimum inhibitory concentrations (MIC) and minimum fungicidal concentrations (MFC) are the lowest concentrations that are required for completely inhibiting growth, and killing at least 99% of the fungi, respectively. As is apparent from Table 4 below, there is a general trend; i.e., increased antifungal activity is observed as the length of the hydrocarbon chain that separates the facial amphiphile from the Amphotericin B moiety is decreased.

C. gatti = assay: Antifungal activities, MIC/MFC; assay type: cell-based; details: C. gatti; for MIC: Table 2, 4th value in brackets, read-out: minimum inhibitory concentration (MIC)
Experimental: as §1, §2, §3

C. glabrata = assay: Antifungal activities, MIC/MFC; assay type: cell-based; details: C. glabrata; for MIC: Table 2, 2nd value in brackets, read-out: minimum inhibitory concentration (MIC)
Experimental: as §1, §2, §3

C. neoformans = assay: Antifungal activities, MIC/MFC; assay type: cell-based; details: C. neoformans; for MIC: Table 2, 3rd value in brackets, read-out: minimum inhibitory concentration (MIC)
Experimental: as §1, §2, §3

sheep red blood cells = assay: Hemolysis measurements, release of hemoglobin; assay type: cell-based; details: up to concentrations of 500 μM; 37° C. in PBS, pH 7.4
Experimental: Sheep Red Blood Cells, 10%, in saline (Innovative Research, Novi, Mich.), were diluted in saline (pH 7.4) to a concentration of 4%, which corresponds to 4×10^7 cells/mL. All measurements were carried out in duplicate. Solutions of Amphotericin B (Sigma-Aldrich) were prepared by adding 10 μL of a DMSO solution containing a given concentration of the antibiotic (i.e., ranging from 0.2 mM to 50 mM) to 490 μL of PBS. After the resulting solution was vortex mixed for 30 seconds (s) it was incubated at 37° C. for 15 min. The resulting solution of antibiotic (500 μL) was then mixed with 500 μL of the 4% erythrocyte dispersion at 37° C. in a 1 mL plastic centrifuge vial to give a dispersion that was vortex mixed at slow rate for 5 s. After 1 h of incubation at 37° C., all samples were centrifuged (1500 g, Eppendorf centrifuge 5415C, 5000 rpm) at rt for 5 min. The supernatant (˜0.7 mL) from each plastic vial was carefully separated from sediment using a disposable glass pipette and quickly transferred to test tube. A volume of 50 μL of this supernatant was then transferred to a UV cell containing 500 μL of PBS that was maintained at 37° C. The UV spectrum was then scanned (450-650 nm) and the absorbance at 575 nm used to determine the extent of hemolysis. The extent of 0% and 100% of hemolysis was obtained from A575 values of experiments that were run in absence of AmphB (control, [A575,]o) and in presence, 100 μM AmphB ([A575]max), respectively.

Cryptococcus neoformans = assay: Cryptococcosis mouse model, brain and lung tissue burden; assay type: in vivo, mice; details: after intravenous administration
Experimental: Cryptococcosis mice are infected via tail vein injection of 5×10^4 C. neoformans cells. Inocula are verified by quantitative culture. Animals are identified by temporary ink marking, assigned to groups of 10 mice. Test compounds will be dosed starting on the day of infection. Initial studies will employ i.v., i.p. or oral (gavage) dosing (depending on the compound and the vehicle). Antifungal compounds are given for a period of 7 days. […] On day 8, the lung and brain are evaluated by quantitative culture per gram of tissue, by weighing organs and culturing serially diluted homogenates. These tissue burden studies permit detection of drug efficacy that may not be evident by using a survival endpoint.
The mice were then sacrificed 7 days later for quantitative culture of brain and lung, with cryptococcal cells per gram tissue being expressed as logarithmic values (log 10). Mean values for each group were compared using the t-test.

SMILES	MIC (C. albicans) [µM]	MIC (C. gatti) [µM]	MIC (C. glabrata) [µM]	MIC (C. neoformans) [µM]	also measured
CC1OC(O[C@H]2/C=C/C=C/C=C/C=C/C=C/C=C/C=C/[C@H](C)[C@@H](O)[C@@H](C)[C@H](C)OC(=O)C[C@H](O)C[C@H](O)CC[C@@H](O)[C@H](O)C[C@H](O)C[C@]3(O)C[C@H](O)[C@@H](C(=O)NCCCCCCCC(=O)N(CCCCNC(=O)CC[C@@H](C)C4CCC5C6C(OC(=O)NCCCCN)CC7CC(OC(=O)NCCCCN)CCC7(C)C6CC(OC(=O)NCCCCN)C54C)CCCNC(=O)CC[C@@H](C)C4CCC5C6C(OC(=O)NCCCCN)CC7CC(OC(=O)NCCCCN)CCC7(C)C6CC(OC(=O)NCCCCN)C54C)[C@H](C2)O3)C(O)C(N)C1O (stereo partly drawn) [VJ-1147]	8 (≈ 21.3 µg/mL)	8 (≈ 21.3 µg/mL)	16 (≈ 42.5 µg/mL)	8 (≈ 21.3 µg/mL)	–
CC1OC(O[C@H]2/C=C/C=C/C=C/C=C/C=C/C=C/C=C/[C@H](C)[C@@H](O)[C@@H](C)[C@H](C)OC(=O)C[C@H](O)C[C@H](O)CC[C@@H](O)[C@H](O)C[C@H](O)C[C@]3(O)C[C@H](O)[C@@H](C(=O)NCCCCNC(=O)C(CCCCNC(=O)CC[C@@H](C)C4CCC5C6C(O)CC7CC(OC(=O)NCC(O)C(O)C(O)C(O)CO)CCC7(C)C6CC(O)C54C)NC(=O)CC[C@@H](C)C4CCC5C6C(O)CC7CC(OC(=O)NCC(O)C(O)C(O)C(O)CO)CCC7(C)C6CC(O)C54C)[C@H](C2)O3)C(O)C(N)C1O (stereo partly drawn) [YM-13]	8 (≈ 18.5 µg/mL)	4 (≈ 9.27 µg/mL)	8 (≈ 18.5 µg/mL)	2 (≈ 4.64 µg/mL)	–
CC1OC(O[C@H]2/C=C/C=C/C=C/C=C/C=C/C=C/C=C/[C@H](C)[C@@H](O)[C@@H](C)[C@H](C)OC(=O)C[C@H](O)C[C@H](O)CC[C@@H](O)[C@H](O)C[C@H](O)C[C@]3(O)C[C@H](O)[C@@H](C(=O)NCCCCNC(=O)C(CCCCNC(=O)CC[C@@H](C)C4CCC5C6C(O)CC7CC(O)CCC7(C)C6CC(O)C54C)NC(=O)CC[C@@H](C)C4CCC5C6C(O)CC7CC(O)CCC7(C)C6CC(O)C54C)[C@H](C2)O3)C(O)C(N)C1O (stereo partly drawn) [YM-15]	–	4 (≈ 7.61 µg/mL)	–	–	MIC (C. albicans; Candida albicans): > 16 µM; MIC (C. glabrata; Nakaseomyces glabratus): > 16 µM; MIC (C. neoformans; Cryptococcus neoformans): > 16 µM
CC1OC(O[C@H]2/C=C/C=C/C=C/C=C/C=C/C=C/C=C/[C@H](C)[C@@H](O)[C@@H](C)[C@H](C)OC(=O)C[C@H](O)C[C@H](O)CC[C@@H](O)[C@H](O)C[C@H](O)C[C@]3(O)C[C@H](O)[C@@H](C(=O)NCCCCNC(=O)C(CCCCNC(=O)CC[C@@H](C)C4CCC5C6C(O)CC7CC(OC(=O)NCCCCN)CCC7(C)C6CC(O)C54C)NC(=O)CC[C@@H](C)C4CCC5C6C(O)CC7CC(OC(=O)NCCCCN)CCC7(C)C6CC(O)C54C)[C@H](C2)O3)C(O)C(N)C1O (stereo partly drawn) [YM-18]	2 (≈ 4.26 µg/mL)	2 (≈ 4.26 µg/mL)	16 (≈ 34.1 µg/mL)	2 (≈ 4.26 µg/mL)	–
CC1OC(O[C@H]2/C=C/C=C/C=C/C=C/C=C/C=C/C=C/[C@H](C)[C@@H](O)[C@@H](C)[C@H](C)OC(=O)C[C@H](O)C[C@H](O)CC[C@@H](O)[C@H](O)C[C@H](O)C[C@]3(O)C[C@H](O)[C@@H](C(=O)NCCCCNC(=O)C(CCCCNC(=O)CC[C@@H](C)C4CCC5C6C(O)CC7CC(OC(=O)NCCN(C)C)CCC7(C)C6CC(O)C54C)NC(=O)CC[C@@H](C)C4CCC5C6C(O)CC7CC(OC(=O)NCCN(C)C)CCC7(C)C6CC(O)C54C)[C@H](C2)O3)C(O)C(N)C1O (stereo partly drawn) [YM-19]	4 (≈ 8.53 µg/mL)	2 (≈ 4.26 µg/mL)	32 (≈ 68.2 µg/mL)	2 (≈ 4.26 µg/mL)	–
CC1OC(O[C@H]2/C=C/C=C/C=C/C=C/C=C/C=C/C=C/[C@H](C)[C@@H](O)[C@@H](C)[C@H](C)OC(=O)C[C@H](O)C[C@H](O)CC[C@@H](O)[C@H](O)C[C@H](O)C[C@]3(O)C[C@H](O)[C@@H](C(=O)NCCOCCOCCC(=O)N(CCCCNC(=O)CC[C@@H](C)C4CCC5C6C(O)CC7CC(O)CCC7(C)C6CC(O)C54C)CCCNC(=O)CC[C@@H](C)C4CCC5C6C(O)CC7CC(O)CCC7(C)C6CC(O)C54C)[C@H](C2)O3)C(O)C(N)C1O (stereo partly drawn) [YM-42]	–	> 16	–	–	MIC (C. albicans; Candida albicans): > 16 µM; MIC (C. glabrata; Nakaseomyces glabratus): > 16 µM; MIC (C. neoformans; Cryptococcus neoformans): > 16 µM
CC1OC(O[C@H]2/C=C/C=C/C=C/C=C/C=C/C=C/C=C/[C@H](C)[C@@H](O)[C@@H](C)[C@H](C)OC(=O)C[C@H](O)C[C@H](O)CC[C@@H](O)[C@H](O)C[C@H](O)C[C@]3(O)C[C@H](O)[C@@H](C(=O)NCCCCCCNC(=O)CC[C@@H](C)C4CCC5C6C(O)CC7CC(O)CCC7(C)C6CC(O)C54C)[C@H](C2)O3)C(O)C(N)C1O (stereo partly drawn) [YYM-72]	–	–	–	–	hemolytic activity (sheep red blood cells): negligible hemolytic activity
CC1OC(O[C@H]2/C=C/C=C/C=C/C=C/C=C/C=C/C=C/[C@H](C)[C@@H](O)[C@@H](C)[C@H](C)OC(=O)C[C@H](O)C[C@H](O)CC[C@@H](O)[C@H](O)C[C@H](O)C[C@]3(O)C[C@H](O)[C@@H](C(=O)NCCSSCCC(=O)N(CCCCNC(=O)C(CCCCNC(=O)CC[C@@H](C)C4CCC5C6C(OS(=O)(=O)[O-])CC7CC(OS(=O)(=O)[O-])CCC7(C)C6CC(OS(=O)(=O)[O-])C54C)NC(=O)CC[C@@H](C)C4CCC5C6C(OS(=O)(=O)[O-])CC7CC(OS(=O)(=O)[O-])CCC7(C)C6CC(OS(=O)(=O)[O-])C54C)CCCNC(=O)C(CCCCNC(=O)CC[C@@H](C)C4CCC5C6C(OS(=O)(=O)[O-])CC7CC(OS(=O)(=O)[O-])CCC7(C)C6CC(OS(=O)(=O)[O-])C54C)NC(=O)CC[C@@H](C)C4CCC5C6C(OS(=O)(=O)[O-])CC7CC(OS(=O)(=O)[O-])CCC7(C)C6CC(OS(=O)(=O)[O-])C54C)[C@H](C2)O3)C(O)C(N)C1O.[Na+].[Na+].[Na+].[Na+].[Na+].[Na+].[Na+].[Na+].[Na+].[Na+].[Na+].[Na+] (stereo partly drawn) [compound 10]	–	–	–	–	minimum inhibitory concentration (MIC in μM) relative to AmphB (C. albicans; 1st value in brackets): > 426 µM; minimum inhibitory concentration (MIC in μM) relative to AmphB (C. gatti; 4th value in brackets): > 426 µM; minimum inhibitory concentration (MIC in μM) relative to AmphB (C. glabrata; 2nd value in brackets): > 426 µM; minimum inhibitory concentration (MIC in μM) relative to AmphB (C. neoformans; 3rd value in brackets): > 426 µM; activity in brain and lung tissue (Cryptococcus neoformans): negligible activity
